The values below come from patent publication US20100292233A1, “DIHYDRO-1H-PYRROLO[1,2-A]INDOL-1-YL CARBOXYLIC ACID DERIVATIVES WHICH ACT AS S1P1 AGONISTS” (ARENA PHARMACEUTICALS, INC., priority 2008, published 2010).

Assay [1] concerns C57BL/6 mice. As to the kind of experiment: MOG-induced EAE in mice. It counts as in vivo, mouse. The following applies: oral, once a day from day 3 until day 21; 1, 3 and 10 mg/kg; FIG. 3. The method, then: Animals: Female C57BL/6 mice (8 to 10 weeks of age at start of study) (Jackson Laboratory, Bar Harbor, Me.) were housed four per cage and maintained in a humidity—(40-60%) and temperature—(68-72° F.) controlled facility on a 12 hr:12 hr light/dark cycle (lights on at 6:30 am) with free access to food (Harlan Teklad, Orange, Calif., Rodent Diet 8604) and water. Mice were allowed one week of habituation to the animal facility before testing.
Induction of EAE: Mice were immunized subcutaneously, 50 μL per hind flank, with a total of 100 μg MOG35-55 peptide emulsified 1:1 with Complete Freund's adjuvant containing 4 mg/mL heat-killed Mycobacterium tuberculosis. Mice also received 200 ng pertussis toxin intraperitoneally on the day of immunization and 48 hours later.
Clinical scoring: Severity of disease symptoms was scored as follows (in increasing order of severity): 0=normal; 1=limp tail OR hind limb weakness; 2=limp tail AND limb weakness/weakness of 2 or more limbs; 3=severe limb weakness or single limb paralysis; 4=paralysis of 2 or more limbs; 5=death.
Drug treatment: Mice were dosed orally, with vehicle or test compound, once a day from day 3 until day 21. Dosing volume is 5 mL/kg. […] Mice were monitored daily from day 7 onward for disease symptoms. After the last dose on day 21, disease progression was monitored daily for 2 more weeks.

In another assay the test system is Lewis rats. As to the kind of experiment: Collagen-induced arthritis in rats (ankle diameter). It counts as in vivo. The following applies: rat, p.o., q.d., day 0 through day 16; 1, 3 and 10 mg/kg; FIG. 4. On the procedure: Female Lewis rats were used in this study. Acclimated animals were anesthetized with isoflurane and given the first collagen injection (day 0). On day 6, they were anesthetized again for the second collagen injection. Collagen was prepared by making a 4 mg/mL solution in 0.01 N acetic acid. Equal volumes of collagen and incomplete Freund's adjuvant were emulsified by hand mixing until a bead of this material held its form when placed in water. Each animal received 300 μL of the mixture each time, spread over 3 subcutaneous sites on the back.
Treatment (p.o., q. d., 5 mL/kg dosing volume) began on day 0 and continued through day 16 with vehicle or compounds given at 24 h intervals. Rats were weighed on days 0, 3, 6 and 9 through 17 and caliper measurements of the ankles taken on days 9 through 17. The 2nd enantiomer of Compound 2 (isolated after resolution of compound 2 by HPLC, with a retention time of 14.9 min per the conditions reported in Example 1.25) was dosed at 1, 3 and 10 mg/kg.

The subject of another assay is NOD/Ltj mice. As to the kind of experiment: Cyclophosphamide induced type 1 diabetes in mice. Format: in vivo, mouse. The following applies: oral, once a day from day 0 until day 25; 3 and 10 mg/kg; FIG. 6. The method, then:
Animals: Baseline blood glucose measurements were taken from 9-10 week old female NOD/Ltj mice (Jackson Laboratory, Bar Harbor, Me.) to ensure that they are normoglycemic (blood glucose is 80-120 mg/dL) prior to initiation of the experiment. Blood glucose was measured from tail bleeds using a One Touch Ultra® kit and test strips (LifeScan, Milpitas, Calif.).
Cyclophosphamide induction of Type 1 diabetes: On day 0 and day 14, normoglycemic NOD mice were injected intraperitoneally with 4 mg cyclophosphamide monohydrate (200 mg/kg) dissolved in 0.9% saline. If mice were diabetic (blood glucose is >250 mg/dL) they were not given a booster dose of cyclophosphamide on day 14.
Drug Treatment: Mice were dosed orally, with vehicle or test compound, once a day from day 0 until day 25. Compounds were suspended in 0.5% methyl cellulose vehicle using a sonicator to ensure uniform suspension. Mice were weighed twice weekly and were dosed according to weight. Dosing volume is 5 mL/kg. Test compound was dosed at 3 mg/kg and 10 mg/kg. Blood glucose was measured twice weekly. After dosing was completed at day 25, the mice continued to be monitored and blood glucose measurements were taken once a week for 3 weeks.

Assay [2] concerns C57BL/6 mice. As to the kind of experiment: Mouse skin allograft survival. It counts as in vivo. The following applies: oral, once a day; 1, 3 and 10 mg/kg; FIG. 5. On the procedure: Animals: Female BALB/cJ mice (6 to 7 weeks of age at start of study) (Jackson Laboratory, Bar Harbor, Me.) were housed four per cage and maintained in a humidity—(40-60%) and temperature—(68-72° F.) controlled facility on a 12 hr:12 hr light/dark cycle (lights on at 6:30 am) with free access to food (Harlan Teklad, Orange, Calif., Rodent Diet 8604) and water. Female C57BL/6 mice (8 to 10 weeks of age at start of study) (Jackson Laboratory, Bar Harbor, Me.) were similarly housed and maintained. Mice were allowed one week of habituation to the animal facility before testing. […]
Clinical scoring: Skin allografts were inspected and digital images recorded daily until rejection, which was defined as the first day on which more than 80% of the graft is necrotic. […] In an optional related study, on posttransplantation day 5 isolated lymphocytes from peripheral lymph nodes and spleen were counted and characterized for activation markers (e.g., T-cell activation markers) by flow cytometry. Also on day 5, grafts were removed from transplanted recipients, cut into small fragments, digested with collagenase and sedimented over Ficoll-Paque (Pharmacia Biotech, Uppsala, Sweden) to isolate graft-infiltrating lymphocytes, which were counted and characterized for activation markers (e.g., T-cell activation markers) by flow cytometry. […]

Regarding `N#Cc1cc(OC(F)(F)F)cc(-c2nc(-c3ccc4c(c3)cc3n4CCC3CC(=O)O)no2)c1` (stereo not drawn) [2nd enantiomer of Compound 2, 2-(7-(5-(3-Cyano-5-(trifluoromethoxy)phenyl)-1,2,4-oxadiazol-3-yl)-2,3-dihydro-1H-pyrrolo[1,2-a]indol-1-yl)acetic Acid], the “activity in the mouse EAE assay (severity of disease symptoms vs vehicle)” value with C57BL/6 mice [1] is “exhibited activity in the mouse EAE assay”. Moreover, the “reduction of mean ankle diameter vs vehicle” value in the assay with Lewis rats was “exhibited activity for reducing mean ankle diameter”. Besides, the “activity in the mouse type I diabetes assay (blood glucose vs vehicle)” value with NOD/Ltj mice is given as “exhibited activity in the mouse type I diabetes assay”. In addition, the “activity in the mouse skin allograft assay (time of rejection vs vehicle)” value in the assay on C57BL/6 mice [2] was “exhibited activity in the mouse skin allograft assay”.
